Reference: US12582677B2, “Methods for producing retinal tissue and retina-related cell” (SUMITOMO CHEMICAL COMPANY, LIMITED, priority 2011, dated 2026)

How the values were obtained:
Type in all cases: cell-based
[1] = test system: RAX::GFP knock-in human ES cells; assay: Production of retinal tissue from human ES cell aggregates: GFP-expressing (retinal progenitor) cells by fluorescence microscopy and FACS
Description: RAX::GFP knock-in human ES cells (derived from KhES-1) were cultured according to the methods described in “Ueno, M. et al. PNAS 2006”, “Watanabe, K. et al. Nat Biotech 2007” and used for the experiment. As the medium, DMEM/F12 medium (Invitrogen) added with 20% KSR (Knockout Serum Replacement; Invitrogen), 0.1 mM 2-mercaptoethanol, 1 mM pyruvic acid, and 5 to 10 ng/ml bFGF was used. The ES cells were dispersed into single cells by using 0.25% trypsin-EDTA (Invitrogen), and floating-cultured in a serum-free medium (100 μl) at 37° C., 5% CO2 to 9×10^3 cells per well of a non-cell adhesive 96-well culture plate (SUMILON spheroid plate, SUMITOMO BAKELITE CO., LTD.). As the serum-free medium in this case, a serum-free medium obtained by adding 20% KSR, 0.1 mM 2-mercaptoethanol, 1 mM pyruvic acid and 20 μM Y27632 to G-MEM medium was used. During the floating culture, Matrigel in an amount of 1/100 per volume was added from day 2 from the start of the floating culture. Thereafter, fluorescence microscopic observation was regularly performed while continuing the floating culture.
RAX::GFP knock-in human ES cells (derived from KhES-1) were cultured according to the methods described in “Ueno, M. et al. PNAS 2006”, “Watanabe, K. et al. Nat Biotech 2007” and used for the experiment. As the medium, DMEM/F12 medium (Invitrogen) added with 20% KSR (Knockout Serum Replacement; Invitrogen), 0.1 mM 2-mercaptoethanol, 1 mM pyruvic acid, and 5-10 ng/ml bFGF was used. For the production of retinal tissue by floating culture, the ES cells were dissociated into single cells by using 0.25% trypsin-EDTA (Invitrogen), and floating-cultured in a serum-free medium (100 μl) at 37° C., 5% CO2 to 9×10^3 cells per well of a non-cell adhesive 96-well culture plate (SUMILON spheroid plate, SUMITOMO BAKELITE CO., LTD.). As the serum-free medium in this case, a serum-free medium obtained by adding 20% KSR, 0.1 mM 2-mercaptoethanol, 1 mM pyruvic acid, 20 μM Y27632 and a substance inhibiting the Nodal signal pathway (10 μM SB431542) to G-MEM medium was used. During the floating culture, Matrigel in an amount of 1/100 per volume was added from day 2 from the start of the floating culture. Thereafter, the floating culture was continued and fluorescence microscopic observation and confirmation of the proportion of the GFP-expressing cells were performed by FACS on day 18 from the start of the floating culture.
RAX::GFP knock-in human ES cells (derived from KhES-1) were cultured according to the methods described in “Ueno, M. et al. PNAS 2006”, “Watanabe, K. et al. Nat Biotech 2007” and used for the experiment. As the medium, DMEM/F12 medium (Invitrogen) added with 20% KSR (Knockout Serum Replacement; Invitrogen), 0.1 mM 2-mercaptoethanol, 1 mM pyruvic acid, and 5 to 10 ng/ml bFGF was used. For the production of retinal tissue by floating culture, the ES cells were dispersed into single cells by using 0.25% trypsin-EDTA (Invitrogen), and floating-cultured in a serum-free medium (100 μl) at 37° C., 5% CO2 to 9×10^3 cells per well of a non-cell adhesive 96-well culture plate (SUMILON spheroid plate, SUMITOMO BAKELITE CO., LTD.). As the serum-free medium in this case, a serum-free medium obtained by adding 20% KSR, 0.1 mM 2-mercaptoethanol, 1 mM pyruvic acid, 20 μM Y27632 and a substance inhibiting the Wnt signal pathway (3 μM IWR1e) to G-MEM medium was used. During the floating culture, Matrigel in an amount of 1/100 per volume was added from day 2 from the start of the floating culture. Thereafter, the floating culture was continued and fluorescence microscopic observation and confirmation of the proportion of the GFP-expressing cells were performed by FACS on day 18 from the start of the floating culture.
RAX::GFP knock-in human ES cells (derived from KhES-1) were cultured according to the methods described in “Ueno, M. et al. PNAS 2006”, “Watanabe, K. et al. Nat Biotech 2007” and used for the experiment. […]

[2] = test system: Crx::GFP knock-in human ES cell-derived retinal tissue; assay: Treatment of human ES cell-derived retinal tissue with DAPT: GFP fluorescence, Recoverin and Brn3 immunostaining; conditions: 10 μM DAPT added day 29
Description: CrX::GFP knock-in human ES cells (derived from KhES-1) were cultured according to the methods described in “Ueno, M. et al. PNAS 2006”, “Watanabe, K. et al. Nat Biotech 2007” and used for the experiment. As the medium, DMEM/F12 medium (Invitrogen) added with 20% KSR (Knockout Serum Replacement; Invitrogen), 0.1 mM 2-mercaptoethanol, 1 mM pyruvic acid, and 5 to 10 ng/ml bFGF was used. The ES cells were dispersed into single cells by using 0.25% trypsin-EDTA (Invitrogen), and floating-cultured in a serum-free medium (100 μl) at 37° C., 5% CO2 to 9×10^3 cells per well of a non-cell adhesive 96-well culture plate (SUMILON spheroid plate, SUMITOMO BAKELITE CO., LTD.). As the serum-free medium in this case, a serum-free medium obtained by adding 20% KSR, 0.1 mM 2-mercaptoethanol, 1 mM pyruvic acid, 20 μM Y27632 and a substance inhibiting the Wnt signal pathway (3 μM IWR1e) to G-MEM medium was used. Matrigel was added in an amount of 1/100 per volume from day 2 of the floating culture and floating culture was performed. Fetal calf serum in an amount of 1/10 per volume and a substance acting on the Shh signal pathway (100 nM SAG) were added on day 12 of floating culture and the floating culture was performed to produce a retinal tissue. A substance acting on the Notch signal (10 μM DAPT (gamma secretase activity inhibitor)) was added to the retinal tissue on day 29 from the start of the floating culture, observed with a fluorescence microscope on day 41 from the start of the floating culture (day 12 after the addition), and fixed with 4% para-formaldehyde on day 43 from the start of the floating culture (day 14 after the addition), and a frozen section was prepared. The prepared frozen section was immunostained for Recoverin, which is one of the marker genes of photoreceptor, and Brn3, which is one of the marker genes of ganglion cells, and the results were compared between the presence and absence of DAPT-addition.

[3] = test system: human ES cell-derived retinal tissue after freeze-thawing; assay: Treatment of human ES cell-derived retinal tissue after freeze-thawing with DAPT: GFP fluorescence, Recoverin and Brn3 immunostaining; conditions: tissue freeze-thawed day 33, 10 μM DAPT added day 38
Description: RAX::GFP knock-in human ES cells (derived from KhES-1) were cultured according to the methods described in “Ueno, M. et al. PNAS 2006”, “Watanabe, K. et al. Nat Biotech 2007” and used for the experiment. As the medium, DMEM/F12 medium (Invitrogen) added with 20% KSR (Knockout Serum Replacement; Invitrogen), 0.1 mM 2-mercaptoethanol, 1 mM pyruvic acid, and 5 to 10 ng/ml bFGF was used. For the production of retinal tissue by floating culture, the ES cells were dispersed into single cells by using 0.25% trypsin-EDTA (Invitrogen), and floating-cultured in a serum-free medium (100 μl) at 37° C., 5% CO2 to 9×10^3 cells per well of a non-cell adhesive 96-well culture plate (SUMILON spheroid plate, SUMITOMO BAKELITE CO., LTD.). As the serum-free medium in this case, a serum-free medium obtained by adding 20% KSR, 0.1 mM 2-mercaptoethanol, 1 mM pyruvic acid, 20 μM Y27632 and a substance inhibiting the Wnt signal pathway (3 μM IWR1e) to G-MEM medium was used. […] Matrigel was added in an amount of 1/100 per volume from day 2 of the floating culture and floating culture was performed. Fetal calf serum in an amount of 1/10 per volume and a substance acting on the Shh signal pathway (100 nM SAG) were added on day 12 from the start of the floating culture and the floating culture was performed to produce a retinal tissue. The produced retinal tissue on day 33 from the start of the floating culture was freeze-thawed, and a Notch signal action inhibitory substance (10 μM DAPT) was added to the retinal tissue on day 38 from the start of the floating culture. […] The prepared frozen section was immunostained for Recoverin, which is one of the marker genes of photoreceptor, and Brn3, which is one of the marker genes of ganglion cells, and the results were compared between the presence and absence of DAPT-addition.

[4] = test system: RAX::GFP knock-in human ES cells; assay: Production of optic-cup-like structure from human ES cell aggregates; conditions: 3 μM CHIR99021 and 100 nM SAG together in serum-containing medium from day 15
Description: RAX::GFP knock-in human ES cells (derived from KhES-1) were cultured according to the methods described in “Ueno, M. et al. PNAS 2006”, “Watanabe, K. et al. Nat Biotech 2007” and used for the experiment. As the medium, DMEM/F12 medium (Invitrogen) added with 20% KSR (Knockout Serum Replacement; Invitrogen), 0.1 mM 2-mercaptoethanol, 1 mM pyruvic acid, and 5 to 10 ng/ml bFGF was used. For the formation of aggregate by floating culture, the ES cells were dispersed into single cells by using 0.25% trypsin-EDTA (Invitrogen), suspended in a serum-free medium (100 μl) to 9×10^3 cells per well of a non-cell adhesive 96-well culture plate (SUMILON spheroid plate, SUMITOMO BAKELITE CO., LTD.) to allow for rapid formation of aggregates, and floating cultured at 37° C., 5% CO2. As the serum-free medium in this case, a serum-free medium obtained by adding 20% KSR, 0.1 mM 2-mercaptoethanol, 1 mM pyruvic acid, 20 μM Y27632 and a substance inhibiting the Wnt signal pathway (3 μM IWR1e) to G-MEM medium was used. During the floating culture, Matrigel in an amount of 1/100 per volume was added from day 2 from the start of the floating culture. The floating aggregate was transferred to a serum-free medium without a substance inhibiting the Wnt signal pathway on day 12 from the start of the floating culture, fetal calf serum in an amount of 1/10 per volume was added and the aggregate was cultured. […]

[5] = 100 nM SAG and fetal calf serum 1/10 added day 12, with 3 μM IWR1e and Matrigel, day 18

For `NC(=O)c1ccc(-c2nc(-c3ccc4c(c3)OCO4)c(-c3ccccn3)[nH]2)cc1` [SB431542], which “GFP-expressing cells (fluorescence microscopic observation)” value ([1]; 10 μM SB431542 in serum-free medium, Matrigel 1/100 from day 2) is on record?
Its value is “somewhat found”.

How did the “GFP-expressing cells (fluorescence microscopic observation)” value ([1]; 3 μM IWR1e in serum-free medium, Matrigel 1/100 from day 2, compared to Comparative Examples 1 and 2) turn out when `O=C(Nc1cccc2cccnc12)c1ccc(N2C(=O)[C@@H]3[C@H](C2=O)[C@@H]2C=C[C@H]3C2)cc1` [IWR1e] was run?
Its value is “clearly increased”.

And the “proportion of the GFP-expressing cells (FACS)” value ([1]; 3 μM IWR1e, Matrigel, no serum (Comparative Example 3), day 18 of floating culture)?
Its value is 3.2%.

Which results are given for `C[C@H](NC(=O)Cc1cc(F)cc(F)c1)C(=O)N[C@H](C(=O)OC(C)(C)C)c1ccccc1` [DAPT, N-[N-(3,5-difluorophenacetyl)-L-alanyl]-S-phenylglycine t-butyl ester]?
ganglion cells (immunostaining of Brn3) ([2]; fixed day 43): increased; increase of Recoverin-positive cells (immunostaining of frozen section) ([2]; fixed day 43): 3- to 5 fold; GFP-expressing cells (fluorescence microscope) compared to no DAPT ([2]; observed day 41): markedly increased; Recoverin-positive cells produced (immunostaining of frozen section) ([3]; day 49): about 5 fold; ganglion cells (immunostaining of Brn3) ([3]; day 49): produced; GFP-expressing cells (fluorescence microscope) compared to no DAPT ([3]; observed day 49): markedly produced

What does the source list for `CNC1CCC(N(Cc2cccc(-c3ccncc3)c2)C(=O)c2sc3ccccc3c2Cl)CC1` (stereo not shown) [SAG]?
GFP-expressing cells (fluorescence microscopic observation) [1, 5]: a very high number of GFP-expressing cells emerged; proportion of the GFP-expressing cells (FACS) [1, 5]: not less than 70%; increase of proportion of GFP-expressing cells compared to Comparative Example 3 ([1]; Example 2: serum and 100 nM SAG added simultaneously, with 3 μM IWR1e and Matrigel): about 24 fold; optic-cup-like structure formation on aggregate [4]: a clear optic-cup-like structure was formed
